Like-named read-outs stand apart in the source and are kept apart here.

Test [1] addresses human recombinant CB1R (Homo sapiens (Human), UniProt P21554). Description: CB1 receptor binding assay ([3H]CP-55,940 displacement, HEK-293 membranes). The protocol: The compounds were evaluated in CB1R and CB2R binding assays using membranes from HEK-293 cells transfected with cDNAs encoding the human recombinant CB1R (Bmax=[…] protein) and human recombinant CB2R (Bmax=[…] protein) (Perkin-Elmer). […]. Compounds were tested following the procedure described by the cell membrane manufacturer. […] CB2R binding assays were carried out with two different buffers: incubation buffer (Tris-HCl, 50 mM; MgCl2, 5 mM; CaCl2 1 mM; BSA, 0.2% at pH 7.4) and washing buffer (Tris-HCl, 50 mM; NaCl 500 mM; BSA, 0.1% at pH 7.4). […] Assays were performed in duplicate and incubated for […] at 37° C. After the incubation, the assay mixture is filtered through 96 GF/C filter plates (Perkin Elmer #6005174) using Perkin Elmer Filtermate Harvester, and then washed four times with ice-cold washing buffer. The filters are dried for 1 hour at 50° C. and [^3H] trapped on filter counted for radioactivity in Perkin Elmer Microscint 20 cocktail (#6013329) using Perkin Elmer MicroBeta2 Reader. […] Data are analyzed and IC50 is calculated using GraphPad Prism 5 and the model “log(inhibitor) vs. response—Variable slope”. The binding affinity of the compounds is Determined by Using the Cheng and Prusoff Equation Ki=IC50/(1+[radioligand]/Kd).

The target of test [2] is human CB2 receptor (Homo sapiens (Human), UniProt P34972). Description: CB2 receptor binding assay ([3H]CP-55,940 displacement, HEK-293 membranes). The protocol:
The compounds were evaluated in CB1R and CB2R binding assays using membranes from HEK-293 cells transfected with cDNAs encoding the human recombinant CB1R (Bmax=[…] protein) and human recombinant CB2R (Bmax=[…] protein) (Perkin-Elmer). […] Compounds were tested following the procedure described by the cell membrane manufacturer. […] CB2R binding assays were carried out with two different buffers: incubation buffer (Tris-HCl, 50 mM; MgCl2, 5 mM; CaCl2 1 mM; BSA, 0.2% at pH 7.4) and washing buffer (Tris-HCl, 50 mM; NaCl 500 mM; BSA, 0.1% at pH 7.4). […] Assays were performed in duplicate and incubated for […] at 37° C. […] Data are analyzed and IC50 is calculated using GraphPad Prism 5 and the model “log(inhibitor) vs. response—Variable slope”. The binding affinity of the compounds is Determined by Using the Cheng and Prusoff Equation Ki=IC50/(1+[radioligand]/Kd).

[3] abbreviates: membranes of HEK-293 cells with human recombinant CB1R, [3H]CP-55,940, class symbols, read-out: CB1 IC50.
[4] abbreviates: membranes of HEK-293 cells with human recombinant CB1R, [3H]CP-55,940, read-out: CB1 IC50.
Setting [5] is: membranes of HEK-293 cells with human recombinant CB2R, [3H]CP-55,940, read-out: CB2 IC50.
[6] abbreviates: membranes of HEK-293 cells with human recombinant CB2R, [3H]CP-55,940, class symbols, read-out: CB2 IC50.

Chain of human CB2 receptor (P34972 whole entry): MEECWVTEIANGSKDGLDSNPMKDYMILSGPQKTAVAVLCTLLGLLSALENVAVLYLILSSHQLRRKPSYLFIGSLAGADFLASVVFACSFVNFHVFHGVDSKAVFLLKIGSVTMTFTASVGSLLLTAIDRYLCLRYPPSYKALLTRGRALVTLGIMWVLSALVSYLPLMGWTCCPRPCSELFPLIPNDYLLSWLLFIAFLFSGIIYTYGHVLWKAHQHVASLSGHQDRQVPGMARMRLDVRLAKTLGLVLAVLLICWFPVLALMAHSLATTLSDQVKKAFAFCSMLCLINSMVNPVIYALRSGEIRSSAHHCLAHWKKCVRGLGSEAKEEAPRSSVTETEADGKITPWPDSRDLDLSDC
Chain of human recombinant CB1R (P21554 whole entry): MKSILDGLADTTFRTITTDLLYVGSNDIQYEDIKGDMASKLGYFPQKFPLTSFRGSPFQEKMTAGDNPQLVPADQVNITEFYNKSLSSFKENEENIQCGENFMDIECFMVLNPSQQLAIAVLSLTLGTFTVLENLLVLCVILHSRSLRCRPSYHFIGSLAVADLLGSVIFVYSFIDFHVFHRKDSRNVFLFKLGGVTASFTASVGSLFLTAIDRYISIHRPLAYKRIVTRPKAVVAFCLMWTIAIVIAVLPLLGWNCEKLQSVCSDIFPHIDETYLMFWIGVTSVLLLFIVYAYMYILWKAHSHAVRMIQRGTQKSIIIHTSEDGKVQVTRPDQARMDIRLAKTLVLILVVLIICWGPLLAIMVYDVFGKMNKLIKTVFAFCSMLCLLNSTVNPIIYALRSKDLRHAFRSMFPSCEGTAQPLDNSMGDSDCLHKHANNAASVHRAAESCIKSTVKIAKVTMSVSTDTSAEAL

In general, IC50 refers to the point on the concentration scale where inhibition reaches its midpoint. On to `Cc1c(C(=O)NC2CC3(CCC3)C2)c(=O)n(Cc2ccc(C#N)cc2)c2ncc(Br)cc12` [Compound 77, 6-bromo-1-(4-cyanobenzyl)-4-methyl-2-oxo-N-(spiro[3.3]heptan-2-yl)-1,2-dihydro-1,8-naphthyridine-3-carboxamide], for which the 50% inhibitory concentration (IC50) is more than 1000 nM in test [1] (setting [3]) and 100 to 999 nM in test [2].
As to `Cc1c(C(=O)NC2CC3(CCC3)C2)c(=O)n(Cc2cccc(C#N)c2)c2ncc(Br)cc12` [Compound 78, 6-bromo-1-(3-cyanobenzyl)-4-methyl-2-oxo-N-(spiro[3.3]heptan-2-yl)-1,2-dihydro-1,8-naphthyridine-3-carboxamide], the figures for the half-maximal inhibitory concentration (IC50) in test [1] (setting [3]) and in test [2] were more than 1000 nM and 100 to 999 nM, respectively.
For `COc1ccc(-c2cnc3c(c2)c(C)c(C(=O)NC2CCC(C)CC2)c(=O)n3Cc2ccc(F)cc2)cc1` (centres unmarked) [Compound 80, 1-(4-fluorobenzyl)-6-(4-methoxyphenyl)-4-methyl-N-(4-methylcyclohexyl)-2-oxo-1,2-dihydro-1,8-naphthyridine-3-carboxamide] the same measures were more than 1000 nM and 100 to 999 nM.
Take `O=C(NC1CC2(CCC2)C1)c1cc2cc(Br)cnc2n(Cc2ccc(F)cc2)c1=O` [Compound 81, 6-bromo-1-(4-fluorobenzyl)-2-oxo-N-(spiro[3.3]heptan-2-yl)-1,2-dihydro-1,8-naphthyridine-3-carboxamide]: the half-maximal inhibitory concentration (IC50) in test [1] (setting [4]) was more than 10000 nM; in test [2] (setting [5]) it was 5 nM.
For `CC(C)c1cnc2c(c1)cc(C(=O)NC13CC(C1)C3)c(=O)n2Cc1ccc(F)cc1` [Compound 84, N-(bicyclo[1.1.1]pentan-1-yl)-1-(4-fluorobenzyl)-6-isopropyl-2-oxo-1,2-dihydro-1,8-naphthyridine-3-carboxamide] the same measures were 413 nM and 3.7 nM.
In the case of `CC(C)c1cnc2c(c1)cc(C(=O)NC1(c3ccc(C#N)cc3)CC1)c(=O)n2Cc1ccc(F)cc1` [Compound 86, N-(1-(4-cyanophenyl)cyclopropyl)-1-(4-fluorobenzyl)-6-isopropyl-2-oxo-1,2-dihydro-1,8-naphthyridine-3-carboxamide], the IC50 is more than 1000 nM in test [1] (setting [3]) and less than 100 nM in test [2] (setting [6]).
For `C[C@@H](NC(=O)c1cc2cc(Br)cnc2n(Cc2ccc(F)cc2)c1=O)c1ccc(F)cc1` [Compound 87, (R)-6-bromo-1-(4-fluorobenzyl)-N-(1-(4-fluorophenyl)ethyl)-2-oxo-1,2-dihydro-1,8-naphthyridine-3-carboxamide], the IC50 in test [1] (setting [4]) was determined as 4580 nM; in test [2] (setting [5]), 5 nM.
For the molecule `C=C(C)c1cnc2c(c1)cc(C(=O)N[C@H](C)c1ccc(F)cc1)c(=O)n2Cc1ccc(F)cc1` [Compound 88, (R)-1-(4-fluorobenzyl)-N-(1-(4-fluorophenyl)ethyl)-2-oxo-6-(prop-1-en-2-yl)-1,2-dihydro-1,8-naphthyridine-3-carboxamide], the IC50 in test [1] (setting [4]) was more than 10000 nM; in test [2] (setting [5]), 6.7 nM.
For the molecule `C[C@H](NC(=O)c1cc2cc(Br)cnc2n(Cc2ccc(F)cc2)c1=O)c1ccc(F)cc1` [Compound 90, (S)-6-bromo-1-(4-fluorobenzyl)-N-(1-(4-fluorophenyl)ethyl)-2-oxo-1,2-dihydro-1,8-naphthyridine-3-carboxamide], the IC50 in test [1] (setting [4]) stood at 348 nM; in test [2] (setting [5]), 11 nM.
Regarding `C[C@@H](NC(=O)c1cc2cc(Br)cnc2n(Cc2ccc(F)cc2)c1=O)c1ccc(C#N)cc1` [Compound 91, (R)-6-bromo-N-(1-(4-cyanophenyl)ethyl)-1-(4-fluorobenzyl)-2-oxo-1,2-dihydro-1,8-naphthyridine-3-carboxamide], the results for the half-inhibitory concentration (IC50) in test [1] (setting [4]) and in test [2] (setting [5]) were more than 10000 nM and 7 nM, respectively.
Regarding `O=C(NC1CC2(CCC2)C1)c1cc2cc(C3CC3)cnc2n(Cc2ccc(F)cc2)c1=O` [Compound 93, 6-cyclopropyl-1-(4-fluorobenzyl)-2-oxo-N-(spiro[3.3]heptan-2-yl)-1,2-dihydro-1,8-naphthyridine-3-carboxamide], the IC50 in test [1] (setting [4]) was more than 10000 nM; in test [2] (setting [5]) it was 3.6 nM.
With `O=C(NC1CC2(CCC2)C1)c1cc2cc(Br)cnc2n(Cc2cccnc2)c1=O` [Compound 96, 6-bromo-2-oxo-1-(pyridin-3-ylmethyl)-N-(spiro[3.3]heptan-2-yl)-1,2-dihydro-1,8-naphthyridine-3-carboxamide], the IC50 in test [1] (setting [3]) was more than 1000 nM; in test [2] (setting [6]), less than 100 nM.
The corresponding values for `O=C(NC1CC2(CCC2)C1)c1cc2cc(-c3ccc(F)cc3)cnc2n(Cc2cccnc2)c1=O` [Compound 97, 6-(4-fluorophenyl)-2-oxo-1-(pyridin-3-ylmethyl)-N-(spiro[3.3]heptan-2-yl)-1,2-dihydro-1,8-naphthyridine-3-carboxamide] are more than 1000 nM and less than 100 nM.
The corresponding values for `C[C@@H](NC(=O)c1cc2cc(Br)cnc2n(Cc2ccc(C#N)cc2)c1=O)c1ccc(F)cc1` [Compound 104, (R)-6-bromo-1-(4-cyanobenzyl)-N-(1-(4-fluorophenyl)ethyl)-2-oxo-1,2-dihydro-1,8-naphthyridine-3-carboxamide] are more than 1000 nM and less than 100 nM.
For `O=C(NC1CC2(CCC2)C1)c1cc2cc(-c3ccc(F)cc3)cnc2n(Cc2ccccn2)c1=O` [Compound 106, 6-(4-fluorophenyl)-2-oxo-1-(pyridin-2-ylmethyl)-N-(spiro[3.3]heptan-2-yl)-1,2-dihydro-1,8-naphthyridine-3-carboxamide], the half-maximal inhibitory concentration (IC50) was more than 1000 nM in test [1] (setting [3]) and less than 100 nM in test [2] (setting [6]).
Consider `CC(C)c1cnc2c(c1)cc(C(=O)N[C@H](C)c1ccc(C#N)cc1)c(=O)n2Cc1ccc(F)cn1` [Compound 108, (R)—N-(1-(4-cyanophenyl)ethyl)-1-((5-fluoropyridin-2-yl)methyl)-6-isopropyl-2-oxo-1,2-dihydro-1,8-naphthyridine-3-carboxamide], for which the IC50 was more than 1000 nM in test [1] (setting [3]) and 100 to 999 nM in test [2].
Regarding `C[C@H]1CC[C@@H](NC(=O)c2c(O)c3cc(-c4ccc(F)cc4)cnc3n(CCN3CCOCC3)c2=O)CC1` [Compound 109, 6-(4-fluorophenyl)-4-hydroxy-N-((1s, 4s)-4-methylcyclohexyl)-1-(2-morpholinoethyl)-2-oxo-1,2-dihydro-1,8-naphthyridine-3-carboxamide], the half-inhibitory concentration (IC50) was more than 1000 nM in test [1] (setting [3]) and less than 100 nM in test [2] (setting [6]).
As to `CC12CC(NC(=O)c3c(O)c4cc(-c5ccc(F)cc5)cnc4n(CCN4CCOCC4)c3=O)(C1)C2` [Compound 110, 6-(4-fluorophenyl)-4-hydroxy-N-(3-methylbicyclo[1.1.1]pentan-1-yl)-1-(2-morpholinoethyl)-2-oxo-1,2-dihydro-1,8-naphthyridine-3-carboxamide], the half-inhibitory concentration (IC50) in test [1] and in test [2] was 100 to 999 nM each time.
In the case of `CC1(C)CC(NC(=O)c2c(O)c3cc(-c4ccc(F)cc4)cnc3n(CCN3CCOCC3)c2=O)C1` [Compound 111, N-(3,3-dimethylcyclobutyl)-6-(4-fluorophenyl)-4-hydroxy-1-(2-morpholinoethyl)-2-oxo-1,2-dihydro-1,8-naphthyridine-3-carboxamide], the IC50 is 100 to 999 nM in test [1] and less than 100 nM in test [2] (setting [6]).
`O=C(NC1CC2(CC2)C1)c1c(O)c2cc(-c3ccc(F)cc3)cnc2n(CCN2CCOCC2)c1=O` [Compound 112, 6-(4-fluorophenyl)-4-hydroxy-1-(2-morpholinoethyl)-2-oxo-N-(spiro[2.3]hexan-5-yl)-1,2-dihydro-1,8-naphthyridine-3-carboxamide]: the IC50 in test [1] (setting [3]) was more than 1000 nM; in test [2] (setting [6]) it was less than 100 nM.
The corresponding values for `C[C@H]1C[C@@H](NC(=O)c2c(O)c3cc(-c4ccc(F)cc4)cnc3n(CCN3CCOCC3)c2=O)C1` [Compound 113, 6-(4-fluorophenyl)-4-hydroxy-N-((1s, 3s)-3-methylcyclobutyl)-1-(2-morpholinoethyl)-2-oxo-1,2-dihydro-1,8-naphthyridine-3-carboxamide] are more than 1000 nM and more than 1000 nM.
As for `C[C@H]1C[C@H](NC(=O)c2c(O)c3cc(-c4ccc(F)cc4)cnc3n(CCN3CCOCC3)c2=O)C1` [Compound 114, 6-(4-fluorophenyl)-4-hydroxy-N-((1r, 3r)-3-methylcyclobutyl)-1-(2-morpholinoethyl)-2-oxo-1,2-dihydro-1,8-naphthyridine-3-carboxamide], the IC50 in test [1] (setting [3]) is more than 1000 nM; in test [2], 100 to 999 nM.

The record behind these values is patent publication US11564928B1, “Cannabinoid receptor type 2 (CB2) modulators and uses thereof” (Teon Therapeutics, Inc., priority 2020, dated 2023).
